Measurements published in PubChem BioAssay AID328 (DTP/NCI, 2004).
Several values for one entry are separate records, joined by “and”; a condition that tells them apart may be missing. Identical values can stand only once. Toxic doses and inconclusive results are not listed.

Test system: BDF1 mice, P388 leukemia ip, median survival T/C
Assay: NCI In Vivo Anticancer Drug Screen. Data for tumor model P388 Leukemia (intraperitoneal) in B6D2F1 (BDF1) mice
Settings: endpoint: median survival time, higher = longer survival
Outline: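 Mice carrying the transplantable tumour receive compound or vehicle. Survival is followed in each arm, and the treated measure is divided by the vehicle measure.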

[1] = dose: 50.0 mg/kg/injection, schedule: Q01DX009 (ip), vehicle: saline
[2] = dose: 100.0 mg/kg/injection, schedule: Q01DX009 (ip), vehicle: saline
[3] = dose: 50.0 mg/kg/injection, schedule: Q04DX003 (ip), vehicle: Klucel (hydroxypropylcellulose) (HPC)
[4] = dose: 100.0 mg/kg/injection, schedule: Q04DX003 (ip), vehicle: Klucel (hydroxypropylcellulose) (HPC)
[5] = dose: 12.5 mg/kg/injection, schedule: Q01DX009 (ip), vehicle: saline
[6] = dose: 100.0 mg/kg/injection, schedule: Q04DX003 (ip), vehicle: saline with Tween-80
[7] = dose: 200.0 mg/kg/injection, schedule: Q01DX009 (ip), vehicle: saline with Tween-80
[8] = dose: 200.0 mg/kg/injection, schedule: Q04DX003 (ip), vehicle: saline with Tween-80
[9] = dose: 400.0 mg/kg/injection, schedule: Q04DX003 (ip), vehicle: saline with Tween-80

## O=C(O)C(Cl)Cc1cnc[nH]1 (centres undefined)
[1]
  T/C: 97 % of control and 91 % of control
[2]
  T/C: 107 % of control and 87 % of control
dose: 200.0 mg/kg/injection, schedule: Q01DX009 (ip), vehicle: saline
  T/C: 103 % of control and 95 % of control

## O/N=C\CCC/C=N/O
[3]
  T/C: 100 % of control
dose: 100.0 mg/kg/injection, schedule: Q01DX009 (ip), vehicle: Klucel (hydroxypropylcellulose) (HPC)
  T/C: 91 % of control
[4]
  T/C: 100 % of control
dose: 200.0 mg/kg/injection, schedule: Q01DX009 (ip), vehicle: Klucel (hydroxypropylcellulose) (HPC)
  T/C: 95 % of control
dose: 200.0 mg/kg/injection, schedule: Q04DX003 (ip), vehicle: Klucel (hydroxypropylcellulose) (HPC)
  T/C: 100 % of control
dose: 400.0 mg/kg/injection, schedule: Q01DX009 (ip), vehicle: Klucel (hydroxypropylcellulose) (HPC)
  T/C: 95 % of control

## CCCCCC(CN(C)C)C(O)/C=C\c1ccccc1 (centres undefined)
dose: 3.13 mg/kg/injection, schedule: Q01DX009 (ip), vehicle: saline
  T/C: 100 % of control
dose: 6.25 mg/kg/injection, schedule: Q01DX009 (ip), vehicle: saline
  T/C: 117 % of control
[5]
  T/C: 119 % of control
[1]
  T/C: 104 % of control
[2]
  T/C: 99 % of control

## CCCCCCCCCCSc1ncnc2nc[nH]c12
dose: 50.0 mg/kg/injection, schedule: Q01DX009 (ip), vehicle: saline with Tween-80
  T/C: 87 % of control
[6]
  T/C: 100 % of control
[7]
  T/C: 108 % of control
[8]
  T/C: 100 % of control

## C[S+](C)CCCNC(=O)c1csc(-c2csc(CCNC(=O)c3ccccc3)n2)n1
dose: 8.0 mg/kg/injection, schedule: Q01DX009 (ip), vehicle: saline
  T/C: 90 % of control
dose: 16.0 mg/kg/injection, schedule: Q01DX009 (ip), vehicle: saline
  T/C: 100 % of control
dose: 32.0 mg/kg/injection, schedule: Q01DX009 (ip), vehicle: saline
  T/C: 95 % of control

## O=C1c2ccccc2C(=Cc2ccccc2)c2ccccc21
dose: 100.0 mg/kg/injection, schedule: Q01DX009 (ip), vehicle: saline with Tween-80
  T/C: 118 % of control
[7]
  T/C: 100 % of control
dose: 400.0 mg/kg/injection, schedule: Q01DX009 (ip), vehicle: saline with Tween-80
  T/C: 113 % of control

## Cc1ccc(NS(=O)(=O)c2ccc(Br)cc2)c(C)c1
[6]
  T/C: 100 % of control
[8]
  T/C: 100 % of control
[9]
  T/C: 104 % of control

## O=C1NC(=O)C(F)(F)C(O)N1 (centres undefined)
dose: 12.0 mg/kg/injection, schedule: Q01DX009 (ip), vehicle: saline
  T/C: 115 % of control
dose: 65.0 mg/kg/injection, schedule: Q01DX009 (ip), vehicle: saline
  T/C: 154 % of control
[2]
  T/C: 154 % of control
dose: 150.0 mg/kg/injection, schedule: Q01DX009 (ip), vehicle: saline
  T/C: 166 % of control
dose: 220.0 mg/kg/injection, schedule: Q01DX009 (ip), vehicle: saline
  T/C: 179 % of control
dose: 320.0 mg/kg/injection, schedule: Q01DX009 (ip), vehicle: saline
  T/C: 195 % of control

## COc1c2c(c3c(c1OC)c(=O)c1ccccc1n3C)OCO2
dose: 45.0 mg/kg/injection, schedule: Q01DX010 (ip), vehicle: carboxymethylcellulose (CMC)
  T/C: 90 % of control
dose: 90.0 mg/kg/injection, schedule: Q01DX010 (ip), vehicle: carboxymethylcellulose (CMC)
  T/C: 104 % of control
dose: 180.0 mg/kg/injection, schedule: Q01DX010 (ip), vehicle: carboxymethylcellulose (CMC)
  T/C: 95 % of control

## Cn1nc(NC(=O)C(F)(F)F)c2nccnc21
[6]
  T/C: 100 % of control
[8]
  T/C: 100 % of control
[9]
  T/C: 100 % of control

## CCOC(=O)NC1CCC2c3ccccc3C([N+](=O)[O-])(C1)c1ccccc12 (centres undefined)
dose: 50.0 mg/kg/injection, schedule: Q04DX003 (ip), vehicle: saline with Tween-80
  T/C: 100 % of control
[6]
  T/C: 104 % of control
[8]
  T/C: 100 % of control

## NNc1ccnc2[nH]ncc12
dose: 6.25 mg/kg/injection, schedule: Q01DX006 (ip), vehicle: saline with Tween-80
  T/C: 107 % of control
dose: 12.5 mg/kg/injection, schedule: Q01DX006 (ip), vehicle: saline with Tween-80
  T/C: 104 % of control
dose: 25.0 mg/kg/injection, schedule: Q01DX006 (ip), vehicle: saline with Tween-80
  T/C: 104 % of control

## NCCO/C=C/C(N)C(=O)O (centres undefined)
dose: 4.0 mg/kg/injection, schedule: Q01DX009 (ip), vehicle: saline
  T/C: 99 % of control
dose: 6.0 mg/kg/injection, schedule: Q01DX009 (ip), vehicle: saline
  T/C: 100 % of control
dose: 9.0 mg/kg/injection, schedule: Q01DX009 (ip), vehicle: saline
  T/C: 93 % of control
[5]
  T/C: 104 % of control
dose: 25.0 mg/kg/injection, schedule: Q01DX009 (ip), vehicle: saline
  T/C: 107 % of control

## CC1CCC2C(C)C(=O)OC2C2(C)C(=O)C=CC12 (centres undefined)
dose: 6.4 mg/kg/injection, schedule: Q01DX009 (ip), vehicle: alcohol
  T/C: 106 % of control
dose: 9.6 mg/kg/injection, schedule: Q01DX009 (ip), vehicle: alcohol
  T/C: 100 % of control
dose: 14.0 mg/kg/injection, schedule: Q01DX009 (ip), vehicle: alcohol
  T/C: 122 % of control
dose: 22.0 mg/kg/injection, schedule: Q01DX009 (ip), vehicle: alcohol
  T/C: 108 % of control

## C=C/C(C)=C/[C@H](C)C(=O)C[C@H](O)CC1CC(=O)NC(=O)C1
dose: 7.3 mg/kg/injection, schedule: Q01DX009 (ip), vehicle: saline with Tween-80
  T/C: 111 % of control
dose: 11.0 mg/kg/injection, schedule: Q01DX009 (ip), vehicle: saline with Tween-80
  T/C: 121 % of control
dose: 16.5 mg/kg/injection, schedule: Q01DX009 (ip), vehicle: saline with Tween-80
  T/C: 171 % of control
dose: 25.0 mg/kg/injection, schedule: Q01DX009 (ip), vehicle: saline with Tween-80
  T/C: 123 % of control and 124 % of control
dose: 37.5 mg/kg/injection, schedule: Q01DX009 (ip), vehicle: saline with Tween-80
  T/C: 152 % of control
dose: 75.0 mg/kg/injection, schedule: Q01DX009 (ip), vehicle: saline with Tween-80
  T/C: 180 % of control

## O=C1c2ccccc2C(=O)c2c(NCCSCCO)ccc(NCCSCCO)c21
dose: 25.0 mg/kg/injection, schedule: Q01DX009 (ip), vehicle: other
  T/C: 95 % of control
dose: 50.0 mg/kg/injection, schedule: Q01DX009 (ip), vehicle: other
  T/C: 86 % of control
dose: 100.0 mg/kg/injection, schedule: Q01DX009 (ip), vehicle: other
  T/C: 94 % of control

## CC(=O)O[C@H]1C(=O)[C@@]2(C)[C@H]([C@H](OC(=O)c3ccccc3)[C@]3(O)C[C@H](OC(=O)[C@H](O)[C@@H](NC(=O)c4ccccc4)c4ccccc4)C(C)=C1C3(C)C)[C@]1(OC(C)=O)CO[C@@H]1C[C@@H]2O
dose: 5.0 mg/kg/injection, schedule: Q01DX010 (ip), vehicle: steriod suspending solution
  T/C: 186 % of control
dose: 10.0 mg/kg/injection, schedule: Q01DX010 (ip), vehicle: steriod suspending solution
  T/C: 172 % of control
dose: 12.5 mg/kg/injection, schedule: Q04DX003 (iv), vehicle: Klucel (hydroxypropylcellulose) (HPC)
  T/C: 100 % of control
dose: 20.0 mg/kg/injection, schedule: Q01DX010 (ip), vehicle: steriod suspending solution
  T/C: 190 % of control
dose: 21.6 mg/kg/injection, schedule: Q04DX003 (ip), vehicle: Klucel (hydroxypropylcellulose) (HPC)
  T/C: 171 % of control
dose: 25.0 mg/kg/injection, schedule: Q01DX010 (ip), vehicle: steriod suspending solution
  T/C: 113 % of control
dose: 25.0 mg/kg/injection, schedule: Q04DX003 (ip), vehicle: Klucel (hydroxypropylcellulose) (HPC)
  T/C: 162 % of control
dose: 25.0 mg/kg/injection, schedule: Q04DX003 (iv), vehicle: Klucel (hydroxypropylcellulose) (HPC)
  T/C: 98 % of control
dose: 25.9 mg/kg/injection, schedule: Q04DX003 (ip), vehicle: Klucel (hydroxypropylcellulose) (HPC)
  T/C: 179 % of control
dose: 43.2 mg/kg/injection, schedule: Q04DX003 (ip), vehicle: Klucel (hydroxypropylcellulose) (HPC)
  T/C: 170 % of control
[3]
  T/C: 165 % of control
dose: 50.0 mg/kg/injection, schedule: Q04DX003 (iv), vehicle: Klucel (hydroxypropylcellulose) (HPC)
  T/C: 103 % of control
dose: 60.0 mg/kg/injection, schedule: Q04DX003 (ip), vehicle: Klucel (hydroxypropylcellulose) (HPC)
  T/C: 102 % of control
dose: 72.0 mg/kg/injection, schedule: Q04DX003 (ip), vehicle: Klucel (hydroxypropylcellulose) (HPC)
  T/C: 166 % of control
[4]
  T/C: 173 % of control
dose: 120.0 mg/kg/injection, schedule: Q04DX003 (ip), vehicle: Klucel (hydroxypropylcellulose) (HPC)
  T/C: 100 % of control
